Measured values taken from US10538555B2, “Macrocyclic inhibitors of the PD-1/PD-L1 and CD80(B7-1)/PD-L1 protein/protein interactions” (BRISTOL-MYERS SQUIBB COMPANY, priority 2014, dated 2020).
Where a SMILES comes first, the peptide text is derived from it. Bridges are numbered along the chain shown (N, C = ends). [ ]: non-standard residue; d: D form. Phe(3,4,5-F3) = N[C@@H](Cc1cc(F)c(F)c(F)c1)C(=O)O; Phe(3,4-F2) = N[C@@H](Cc1ccc(F)c(F)c1)C(=O)O; Phe(4-F) = N[C@@H](Cc1ccc(F)cc1)C(=O)O; NMeF = CN[C@@H](Cc1ccccc1)C(=O)O; dNMeF = CN[C@H](Cc1ccccc1)C(=O)O; dHyp = O=C(O)[C@H]1C[C@H](O)CN1; NMehSer = CN[C@@H](CCO)C(=O)O; NMeNle = CCCC[C@H](NC)C(=O)O; dPip = O=C(O)[C@H]1CCCCN1; Orn = NCCC[C@H](N)C(=O)O

These compounds were tested against T1, Human PD-L1/PD-1 (Homo sapiens, UniProt Q9NZQ7) (assay: HTRF Human PD-L1/PD-1 binding assay (PD-1-Ig/PD-L1-His)). Details: PD-L1-His 10 nM, PD-1-Ig 20 nM; class symbol; read-out: HTRF Human PD-L1/PD-1 Binding Assay IC50 Range.
T1 construct: TVMV protease cleavage site (C); made in house; host or cells: HEK293T cells
T1 sequence (Q9NZQ7 with tags, fused parts or gaps): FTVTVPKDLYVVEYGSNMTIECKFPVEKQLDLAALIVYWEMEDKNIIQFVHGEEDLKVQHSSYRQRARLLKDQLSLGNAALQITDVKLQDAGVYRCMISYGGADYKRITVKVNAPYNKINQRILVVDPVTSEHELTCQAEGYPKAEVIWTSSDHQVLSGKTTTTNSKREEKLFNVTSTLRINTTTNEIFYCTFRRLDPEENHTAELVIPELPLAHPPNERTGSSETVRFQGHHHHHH
In short: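 Truncated Fc-fused human PD-1 (aa 25-167) at 20 nM and His-tagged PD-L1 (aa 18-239) at 10 nM final are used, with peptides preincubated 15 min with PD-L1. Detection uses europium-cryptate anti-Ig and APC anti-His antibodies; 665/620 nm ratio.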
`CCCC[C@H]1C(=O)N[C@@H](Cc2ccc(O)cc2)C(=O)N2CCC[C@@H]2C(=O)N[C@@H](Cc2c[nH]c3ccccc23)C(=O)N[C@@H](Cc2ccc(O)cc2)C(=O)N[C@@H](CC(C)C)C(=O)N[C@H](C(=O)NCC(N)=O)CSCC(=O)N[C@@H](Cc2cc(F)c(F)c(F)c2)C(=O)N(C)[C@@H](Cc2ccccc2)C(=O)N(C)[C@@H](CCCC)C(=O)N2CCC[C@@H]2C(=O)N[C@@H](CC(=O)O)C(=O)N[C@@H](C(C)C)C(=O)N1C` [Example 9213] ({CH2CO}-[Phe(3,4,5-F3)][NMeF][NMeNle][dP]DV[NMeNle]Y[dP]WYLCG-NH2; thioether N-13) gave an IC50 of 10 to 99.9 nM. With `CCCC[C@H]1C(=O)N[C@@H](Cc2ccc(O)cc2)C(=O)N2CCCC[C@@H]2C(=O)N[C@@H](Cc2c[nH]c3ccccc23)C(=O)N[C@@H](Cc2ccc(O)cc2)C(=O)N[C@@H](CC(C)C)C(=O)N[C@H](C(=O)NCC(N)=O)CSCC(=O)N[C@@H](Cc2ccc(F)cc2)C(=O)N(C)[C@@H](Cc2ccccc2)C(=O)N(C)[C@@H](CCCC)C(=O)N2CCC[C@@H]2C(=O)N[C@@H](CC(=O)O)C(=O)N[C@@H](C(C)C)C(=O)N1C` [Example 9214] ({CH2CO}-[Phe(4-F)][NMeF][NMeNle][dP]DV[NMeNle]Y[dPip]WYLCG-NH2; thioether N-13) the IC50 was 100 to 990 nM. In the case of `CCCC[C@H]1C(=O)N[C@@H](CCC(N)=O)C(=O)N2CCC[C@@H]2C(=O)N[C@@H](Cc2c[nH]c3ccccc23)C(=O)N[C@@H](Cc2ccc(O)cc2)C(=O)N[C@@H](CC(C)C)C(=O)N[C@H](C(=O)NCC(N)=O)CSCC(=O)N[C@@H](Cc2ccc(F)cc2)C(=O)N(C)[C@@H](Cc2ccccc2)C(=O)N(C)[C@@H](CCCC)C(=O)N2CCC[C@@H]2C(=O)N[C@@H](CC(=O)O)C(=O)N[C@@H](C(C)C)C(=O)N1C` [Example 9215] ({CH2CO}-[Phe(4-F)][NMeF][NMeNle][dP]DV[NMeNle]Q[dP]WYLCG-NH2; thioether N-13), the IC50 is reported as 10 to 99.9 nM. Compound `CCCC[C@H]1C(=O)N[C@@H](CCC(N)=O)C(=O)N2CCCC[C@@H]2C(=O)N[C@@H](Cc2c[nH]c3ccccc23)C(=O)N[C@@H](Cc2ccc(O)cc2)C(=O)N[C@@H](CC(C)C)C(=O)N[C@H](C(=O)NCC(N)=O)CSCC(=O)N[C@@H](Cc2ccc(F)cc2)C(=O)N(C)[C@@H](Cc2ccccc2)C(=O)N(C)[C@@H](CCCC)C(=O)N2CCC[C@@H]2C(=O)N[C@@H](CC(=O)O)C(=O)N[C@@H](C(C)C)C(=O)N1C` [Example 9216] ({CH2CO}-[Phe(4-F)][NMeF][NMeNle][dP]DV[NMeNle]Q[dPip]WYLCG-NH2; thioether N-13) has an IC50 of 10 to 99.9 nM. Compound `CCCC[C@H]1C(=O)N[C@@H](CCC(N)=O)C(=O)N2CCC[C@@H]2C(=O)N[C@@H](Cc2c[nH]c3ccccc23)C(=O)N[C@@H](Cc2ccc(O)cc2)C(=O)N[C@@H](CCCN)C(=O)N[C@H](C(=O)NCC(N)=O)CSCC(=O)N[C@@H](Cc2ccc(F)cc2)C(=O)N(C)[C@@H](Cc2ccccc2)C(=O)N(C)[C@@H](CCCC)C(=O)N2CCC[C@@H]2C(=O)N[C@@H](CC(=O)O)C(=O)N[C@@H](C(C)C)C(=O)N1C` [Example 9217] ({CH2CO}-[Phe(4-F)][NMeF][NMeNle][dP]DV[NMeNle]Q[dP]WY[Orn]CG-NH2; thioether N-13) has an IC50 of 100 to 990 nM. Compound `CCCC[C@H]1C(=O)N[C@@H](CCC(N)=O)C(=O)N2CCCC[C@@H]2C(=O)N[C@@H](Cc2c[nH]c3ccccc23)C(=O)N[C@@H](Cc2ccc(O)cc2)C(=O)N[C@@H](CCCN)C(=O)N[C@H](C(=O)NCC(N)=O)CSCC(=O)N[C@@H](Cc2ccc(F)cc2)C(=O)N(C)[C@@H](Cc2ccccc2)C(=O)N(C)[C@@H](CCCC)C(=O)N2CCC[C@@H]2C(=O)N[C@@H](CC(=O)O)C(=O)N[C@@H](C(C)C)C(=O)N1C` [Example 9218] ({CH2CO}-[Phe(4-F)][NMeF][NMeNle][dP]DV[NMeNle]Q[dPip]WY[Orn]CG-NH2; thioether N-13) has an IC50 of 10 to 99.9 nM. Compound `CCCC[C@H]1C(=O)N2CCC[C@@H]2C(=O)N[C@@H](CC(=O)O)C(=O)N[C@@H](C(C)C)C(=O)N(C)[C@@H](CCOC)C(=O)N[C@@H](Cc2ccc(O)cc2)C(=O)N2CCC[C@@H]2C(=O)N[C@@H](Cc2c[nH]c3ccccc23)C(=O)N[C@@H](Cc2ccc(O)cc2)C(=O)N[C@@H](CC(C)C)C(=O)N[C@H](C(=O)NCC(N)=O)CSCC(=O)N[C@@H](Cc2ccc(F)cc2)C(=O)N(C)[C@@H](Cc2ccccc2)C(=O)N1C` [Example 9219] ({CH2CO}-[Phe(4-F)][NMeF][NMeNle][dP]DV[NMehSer](Me)Y[dP]WYLCG-NH2; thioether N-13) has an IC50 of 100 to 990 nM. With `CCCC[C@H]1C(=O)N2CCC[C@@H]2C(=O)N[C@@H](CC(=O)O)C(=O)N[C@@H](C(C)C)C(=O)N(C)[C@@H](CCOC)C(=O)N[C@@H](Cc2ccc(O)cc2)C(=O)N2CCCC[C@@H]2C(=O)N[C@@H](Cc2c[nH]c3ccccc23)C(=O)N[C@@H](Cc2ccc(O)cc2)C(=O)N[C@@H](CC(C)C)C(=O)N[C@H](C(=O)NCC(N)=O)CSCC(=O)N[C@@H](Cc2ccc(F)cc2)C(=O)N(C)[C@@H](Cc2ccccc2)C(=O)N1C` [Example 9220] ({CH2CO}-[Phe(4-F)][NMeF][NMeNle][dP]DV[NMehSer](Me)Y[dPip]WYLCG-NH2; thioether N-13) the IC50 was 100 to 990 nM. With `CCCC[C@H]1C(=O)N2CCC[C@@H]2C(=O)N[C@@H](CC(=O)O)C(=O)N[C@@H](C(C)C)C(=O)N(C)[C@@H](CCOC)C(=O)N[C@@H](Cc2ccc(O)cc2)C(=O)N2CCC[C@@H]2C(=O)N[C@@H](Cc2c[nH]c3ccccc23)C(=O)N[C@@H](Cc2ccc(O)cc2)C(=O)N[C@@H](CCCN)C(=O)N[C@H](C(=O)NCC(N)=O)CSCC(=O)N[C@@H](Cc2ccc(F)cc2)C(=O)N(C)[C@@H](Cc2ccccc2)C(=O)N1C` [Example 9221] ({CH2CO}-[Phe(4-F)][NMeF][NMeNle][dP]DV[NMehSer](Me)Y[dP]WY[Orn]CG-NH2; thioether N-13) the IC50 was 100 to 990 nM. For `CCCC[C@H]1C(=O)N2CCC[C@@H]2C(=O)N[C@@H](CC(=O)O)C(=O)N[C@@H](C(C)C)C(=O)N(C)[C@@H](CCOC)C(=O)N[C@@H](CCC(N)=O)C(=O)N2CCC[C@@H]2C(=O)N[C@@H](Cc2c[nH]c3ccccc23)C(=O)N[C@@H](Cc2ccc(O)cc2)C(=O)N[C@@H](CC(C)C)C(=O)N[C@H](C(=O)NCC(N)=O)CSCC(=O)N[C@@H](Cc2ccc(F)cc2)C(=O)N(C)[C@@H](Cc2ccccc2)C(=O)N1C` [Example 9223] ({CH2CO}-[Phe(4-F)][NMeF][NMeNle][dP]DV[NMehSer](Me)Q[dP]WYLCG-NH2; thioether N-13), the IC50 was 100 to 990 nM. Work on `CCCC[C@H]1C(=O)N2CCC[C@@H]2C(=O)N[C@@H](CC(=O)O)C(=O)N[C@@H](C(C)C)C(=O)N(C)[C@@H](CCOC)C(=O)N[C@@H](CCC(N)=O)C(=O)N2CCCC[C@@H]2C(=O)N[C@@H](Cc2c[nH]c3ccccc23)C(=O)N[C@@H](Cc2ccc(O)cc2)C(=O)N[C@@H](CC(C)C)C(=O)N[C@H](C(=O)NCC(N)=O)CSCC(=O)N[C@@H](Cc2ccc(F)cc2)C(=O)N(C)[C@@H](Cc2ccccc2)C(=O)N1C` [Example 9224] ({CH2CO}-[Phe(4-F)][NMeF][NMeNle][dP]DV[NMehSer](Me)Q[dPip]WYLCG-NH2; thioether N-13) yielded an IC50 of 100 to 990 nM. Compound `CCCC[C@H]1C(=O)N2C[C@@H](O)C[C@@H]2C(=O)N[C@@H](CC(=O)O)C(=O)N[C@@H](C(C)C)C(=O)N(C)[C@@H](Cc2ccccc2)C(=O)N[C@@H](Cc2ccc(OC)cc2)C(=O)N2C[C@@H](O)C[C@@H]2C(=O)N[C@@H](Cc2c[nH]c3ccccc23)C(=O)N[C@@H](Cc2ccc(O)cc2)C(=O)N[C@@H](CC(C)C)C(=O)N[C@H](C(=O)NCC(N)=O)CSCC(=O)N[C@@H](Cc2ccc(F)c(F)c2)C(=O)N(C)[C@@H](Cc2ccccc2)C(=O)N1C` [Example 9225] ({CH2CO}-[Phe(3,4-F2)][NMeF][NMeNle][dHyp]DV[NMeF]Y(Me)[dHyp]WYLCG-NH2; thioether N-13) has an IC50 of 1 to 9.9 nM. Compound `CCCC[C@H]1C(=O)N2C[C@@H](O)C[C@@H]2C(=O)N[C@@H](CC(=O)O)C(=O)N[C@@H](C(C)C)C(=O)N(C)[C@H](Cc2ccccc2)C(=O)N[C@@H](Cc2ccc(OC)cc2)C(=O)N2C[C@@H](O)C[C@@H]2C(=O)N[C@@H](Cc2c[nH]c3ccccc23)C(=O)N[C@@H](Cc2ccc(O)cc2)C(=O)N[C@@H](CC(C)C)C(=O)N[C@H](C(=O)NCC(N)=O)CSCC(=O)N[C@@H](Cc2ccc(F)c(F)c2)C(=O)N(C)[C@@H](Cc2ccccc2)C(=O)N1C` [Example 9226] ({CH2CO}-[Phe(3,4-F2)][NMeF][NMeNle][dHyp]DV[dNMeF]Y(Me)[dHyp]WYLCG-NH2; thioether N-13) has an IC50 of 10 to 99.9 nM. `CCCC[C@H]1C(=O)N2C[C@@H](O)C[C@@H]2C(=O)N[C@@H](CC(=O)O)C(=O)N[C@@H](C(C)C)C(=O)N(C)[C@@H](Cc2ccccc2)C(=O)N[C@@H](Cc2ccc(O)cc2)C(=O)N2C[C@@H](O)C[C@@H]2C(=O)N[C@@H](Cc2c[nH]c3ccccc23)C(=O)N[C@@H](Cc2ccc(O)cc2)C(=O)N[C@@H](CC(C)C)C(=O)N[C@H](C(=O)NCC(N)=O)CSCC(=O)N[C@@H](Cc2ccc(F)c(F)c2)C(=O)N(C)[C@@H](Cc2ccccc2)C(=O)N1C` [Example 9227] ({CH2CO}-[Phe(3,4-F2)][NMeF][NMeNle][dHyp]DV[NMeF]Y[dHyp]WYLCG-NH2; thioether N-13) showed an IC50 of 1 to 9.9 nM.

Same assay, conditions: PD-L1-His 10 nM, PD-1-Ig 20 nM; read-out: HTRF Human PD-L1/PD-1 Binding Assay IC50
For `CCCC[C@H]1C(=O)N2CCC[C@@H]2C(=O)N[C@@H](CC(=O)O)C(=O)N[C@@H](C(C)C)C(=O)N(C)[C@@H](CCOC)C(=O)N[C@@H](Cc2ccc(O)cc2)C(=O)N2CCCC[C@@H]2C(=O)N[C@@H](Cc2c[nH]c3ccccc23)C(=O)N[C@@H](Cc2ccc(O)cc2)C(=O)N[C@@H](CCCN)C(=O)N[C@H](C(=O)NCC(N)=O)CSCC(=O)N[C@@H](Cc2ccc(F)cc2)C(=O)N(C)[C@@H](Cc2ccccc2)C(=O)N1C` [Example 9222] ({CH2CO}-[Phe(4-F)][NMeF][NMeNle][dP]DV[NMehSer](Me)Y[dPip]WY[Orn]CG-NH2; thioether N-13), the IC50 was 144 nM.
